Converted amounts (≈) assume the structure as drawn.
Tested on: gram-negative bacteria and gram-positive bacteria
Assay: MIC/MBC test, summary over all tested bacteria
Format: cell-based
Conditions: range over all gram-negative and gram-positive bacteria of Table 1
Procedure: 1 mL of a fresh suspension of bacteria (1×10^9 CFU) at the logarithmic growth stage was added into 100 mL containing different concentrations (50 mg/mL, 25 mg/mL, 12.5 mg/mL, 6.25 mg/mL, 3.125 mg/mL, 1.5625 mg/mL, 0.78125 mg/mL, 0.390625 mg/mL) of melatonin. A melatonin (MT)-free solution diluted with DMSO was used as a control group. The samples were shaken at 37° C. and a rotation speed of 120 r/min with protection from light for 12 hours, and then subjected to detection of the minimal inhibitory concentration (MIC) of MT on bacteria. Then, 0.1 mL of the aforementioned transparent bacterial solution was pipetted onto a sterilized agar plate of a specific culture medium and coated evenly, incubated in an incubator at 37° C. for 24 hours, and then subjected to detection of the minimum bactericidal concentration (MBC) of MT on pathogens, wherein the minimum concentration of MT at which no bacterium grew was the MBC of MT on pathogens. Each experiment was carried out for 3 times, and each group was set in triplicate.

COc1ccc2[nH]cc(CCNC(C)=O)c2c1 [melatonin, N-acetyl-5-methoxytryptamine]
MBC: 3.12 to 50 mg/mL (≈ 13.5 to 215 mM) | MIC: 1.56 to 50 mg/mL (≈ 6.73 to 215 mM)

Reference: patent US20210353595A1, “USE OF MELATONIN IN PREPARATION OF MEDICAMENT FOR INHIBITING AND/OR KILLING BACTERIUM” (priority 2020, published 2021)
